Reference: patent US20240390328A1, “PHARMACEUTICAL COMPOSITION CONTAINING AS ACTIVE INGREDIENT COMPOUND CONJUGATED TO G4 STRUCTURES OF CORONAVIRUSES FOR PREVENTION OR TREATMENT OF CORONAVIRUS INFECTIOUS DISEASES” (priority 2020, published 2024)
Like-named read-outs stand apart in the source and are kept apart here.

What was measured:
[1] = test system: SARS-COV-2 RNA G4, position 1463 (NsP2); test: CD thermal melting analysis, G4 No. 3; type: binding; conditions: G4 No. 3, position 1463, NsP2; 15 μM RNA G4, 30 μM compound
Protocol: (§1) For melting, the samples were heated at 25 to 95° C. at 2° C./min with a data pitch of 0.5° C. CD melting analyses were performed with and without G4-binding compounds. The ratio of RNA: G4-binding compound was set to a molar ratio of 1:2. 15 μM RNA G4 was treated with 30 μM G4-binding compound and incubated at room temperature in a buffer comprising 10 mM Tris-HCl (pH 7.5) and 100 mM KCl for 30 minutes. Ellipticity was measured at 265 nm. Thereafter, data were normalized and plotted in OriginPro 2017 to calculate Tm values.
(§2) In addition, 15 μM RNA G4 was treated with 30 μM compound and incubated, and a CD thermal melting curve of RNA G4 (15 μM) was obtained in the presence or absence of the G4-binding compound. Furthermore, the effect of G4-binding compounds on the stability of SARS-COV-2 G4 was confirmed by measuring the difference in melting temperature (ΔTm). The results are illustrated in FIGS. 6A and 6B.

[2] = test system: SARS-COV-2 RNA G4, position 14947 (NsP12); test: CD thermal melting analysis, G4 No. 12; type: binding; conditions: G4 No. 12, position 14947, NsP12; 15 μM RNA G4, 30 μM compound
Protocol: as §1, §2

[3] = test system: SARS-COV-2; test: microbe, parasite or virus in culture; type: cell-based; conditions: Vero cells, read-out: IC50, virion production
[4] = test system: SARS-COV-2 RNA G4, position 10261 (NsP5); test: CD thermal melting analysis, G4 No. 10; type: binding; conditions: G4 No. 10, position 10261, NsP5; 15 μM RNA G4, 30 μM compound
Protocol: as §1, §2

[5] = test system: N1-WT-G4-644 (Nsp1 G4); test: In-vitro transcription/translation (IVT) analysis, EYFP reporter western blot, N1-WT-G4-644; type: biochemical, SARS-COV-2; conditions: N1-WT-G4-644, compound at 5 μM
[6] = test system: SARS-COV-2 RNA G4, position 4261 (NsP3); test: CD thermal melting analysis, G4 No. 8; type: binding; conditions: G4 No. 8, position 4261, NsP3; 15 μM RNA G4, 30 μM compound
Protocol: as §1, §2

[7] = test system: N1-Mut-G4-3467; type: biochemical, SARS-COV-2; conditions: N1-Mut-G4-3467, 5, 15, 25 and 50 μM
[8] = test system: SARS-COV-2 RNA G4, position 26746 (Membrane protein); test: CD thermal melting analysis, G4 No. 21; type: binding; conditions: G4 No. 21, position 26746, Membrane protein; 15 μM RNA G4, 30 μM compound
Protocol: as §1, §2

[9] = test system: SARS-COV-2 RNA G4, position 25197 (Surface glycoprotein); test: CD thermal melting analysis, G4 No. 19; type: binding; conditions: G4 No. 19, position 25197, Surface glycoprotein; 15 μM RNA G4, 30 μM compound
Protocol: as §1, §2

[10] = test system: SARS-COV-2 RNA G4, position 28781 (Nucleocapsid protein); test: CD thermal melting analysis, G4 No. 22; type: binding; conditions: G4 No. 22, position 28781, Nucleocapsid protein; 15 μM RNA G4, 30 μM compound
Protocol: as §1, §2

[11] = test system: SARS-COV-2 RNA G4, position 1574 (NsP2); test: CD thermal melting analysis, G4 No. 4; type: binding; conditions: G4 No. 4, position 1574, NsP2; 15 μM RNA G4, 30 μM compound
Protocol: as §1, §2

[12] = test system: N1-WT-G4-3467 (Nsp3 G4); test: In-vitro transcription/translation (IVT) analysis, EYFP reporter western blot, N1-WT-G4-3467; type: biochemical, SARS-COV-2; conditions: N1-WT-G4-3467, compound at 50 μM
[13] = test system: SARS-COV-2 RNA G4, position 3467 (NsP3); test: CD thermal melting analysis, G4 No. 6; type: binding; conditions: G4 No. 6, position 3467, NsP3; 15 μM RNA G4, 30 μM compound
Protocol: as §1, §2

[14] = test system: SARS-COV-2 RNA G4, position 18296 (NsP12); test: CD thermal melting analysis, G4 No. 15; type: binding; conditions: G4 No. 15, position 18296, NsP12; 15 μM RNA G4, 30 μM compound
Protocol: as §1, §2

[15] = test system: SARS-COV-2 RNA G4, position 2714 (NsP2 + NsP3); test: CD thermal melting analysis, G4 No. 5; type: binding; conditions: G4 No. 5, position 2714, NsP2 + NsP3; 15 μM RNA G4, 30 μM compound
Protocol: as §1, §2

[16] = test system: SARS-COV-2 RNA G4, position 644 (NsP1); test: CD thermal melting analysis, G4 No. 2; type: binding; conditions: G4 No. 2, position 644, NsP1; 15 μM RNA G4, 30 μM compound
Protocol: as §1, §2

[17] = test system: HEK293T cells; test: Cell viability analysis (EZ Cytox), HEK293T cells; type: cell-based, Human; conditions: at 75 µM, after 48 hours
Protocol: (§3) Human embryonic kidney (HEK293T) cells and Vero cells were maintained in high-glucose Dulbecco's Modified Eagle's Medium (DMEM) supplemented with 10% fetal bovine serum (FBS) and 1% penicillin-streptomycin, and cultured in a humidified incubator at 37° C. and 5% CO2.
(§4) Cytotoxicity was analyzed using an EZ Cytox assay kit (DogenBio, Korea). HEK293T and Vero cells were put into a 96-well plate at a density of 2×10^4 cells/well in a medium volume of 100 μl/well and cultured at 37° C. for 24 hours. After 24 hours, the cells were treated with the G4-binding compound at various concentrations (0.1, 0.5, 1, 2.5, 5.5, 7.5, 10, 25, 50, and 75 μM) and cultured at 37° C. for 24 hours or 48 hours. Cell viability (%) was calculated by measuring the absorbance value at 455 nm (Luminescence multi-mode microplate reader Synergy™ Neo2) and using the following Equation 1. All experiments were performed in triplicate, and cells untreated with the compound were used as a control. DMEM with the EZ Cytox reagent was used as a blank.
(§5) The toxicity of PDS and PhenDC3 was confirmed in HEK293T cells and Vero cells. The results are illustrated in FIGS. 7A to 7D.

[18] = test system: N1-WT-G4-353 (Nsp1 G4); test: In-vitro transcription/translation (IVT) analysis, EYFP reporter western blot, N1-WT-G4-353; type: biochemical, SARS-COV-2
[19] = test system: Vero cells; test: Cell viability analysis (EZ Cytox), Vero cells; type: cell-based; conditions: up to 75 μM after 48 hours
Protocol: as §3, §4, §5

[20] = test system: 25 G4s predicted for SARS-COV-2; test: CD thermal melting analysis, comparison of ΔTm over all G4s; type: binding
[21] = test system: SARS-COV-2 RNA G4, position 28903 (Nucleocapsid protein); test: CD thermal melting analysis, G4 No. 23; type: binding; conditions: G4 No. 23, position 28903, Nucleocapsid protein; 15 μM RNA G4, 30 μM compound
Protocol: as §1, §2

[22] = test system: SARS-COV-2 RNA G4, position 353 (NsP1); test: CD thermal melting analysis, G4 No. 1; type: binding; conditions: G4 No. 1, position 353, NsP1; 15 μM RNA G4, 30 μM compound
Protocol: as §1, §2

[23] = test system: HCoV-OC43; test: HCoV-OC43 dose response curve analysis, virion production (plaque assay), HCT-8 cells; type: cell-based; conditions: 0.05 MOI, 72 hours after infection
[24] = test system: SARS-COV-2; test: microbe, parasite or virus in culture; type: cell-based; conditions: for IC50: read-out: IC50, suppressing SARS-COV-2 infection (N protein expression); for suppression of SARS-COV-2 infection (N protein expression), in words: 0.08 to 50 μM
[25] = Severe acute respiratory syndrome coronavirus 2, Vero cells, 0.0125 MOI, 24 hours

Compound: C[n+]1cc(NC(=O)c2ccc3ccc4ccc(C(=O)Nc5cc6ccccc6[n+](C)c5)nc4c3n2)cc2ccccc21 [PhenDC3, 2-N, 9-N-bis(1-methylquinolin-1-ium-3-yl)-1,10-phenanthroline-2,9-dicarboxamide]
- Tm in ° C. with compound [1]: 91.3 °C
- ΔTm [1]: 35.78 °C
- Tm in ° C. with compound [2]: 82.96 °C
- ΔTm [2]: 25.75 °C
- IC50 ([3]; 24 hours after infection): 24.5 µM
- IC50 ([3]; 48 hours after infection): 23.2 µM
- Tm in ° C. with compound [4]: 63.49 °C
- ΔTm [4]: 15.6 °C
- EYFP expression reduced by [5]: 50%
- Tm in ° C. with compound [6]: 85.41 °C
- ΔTm [6]: 35.1 °C
- EYFP expression, concentration-dependent suppression [7]: not suppressed
- Tm in ° C. with compound [8]: 79.68 °C
- ΔTm [8]: 17.02 °C
- Tm in ° C. with compound [9]: 57.51 °C
- ΔTm [9]: −13.68 °C
- Tm in ° C. with compound [10]: 70.40 °C
- ΔTm [10]: 5.7 °C
- Tm in ° C. with compound [11]: 47.74 °C
- ΔTm [11]: −5.64 °C
- reduction in EYFP expression [12]: 70%
- Tm in ° C. with compound [13]: 98.81 °C
- ΔTm [13]: 33.25 °C
- Tm in ° C. with compound [14]: 86.32 °C
- ΔTm [14]: 27.49 °C
- Tm in ° C. with compound [15]: 91.7 °C
- ΔTm [15]: 20.56 °C
- Tm in ° C. with compound [16]: 71.44 °C
- ΔTm [16]: 23.71 °C
- reduction in viability, HEK293T cells [17]: 25%
- EYFP expression reduced by ([18]; N1-WT-G4-353, compound at 50 μM): 90%
- suppressing EYFP reporter expression ([18]; N1-WT-G4-353, concentrations less than 50 μM): not effective
- cytotoxicity in Vero cells [19]: no cytotoxicity was observed
- effect on stability of SARS-COV-2 G4 (ΔTm), in words ([20]; 15 μM RNA G4, 30 μM compound, FIGS. 6A and 6B): significantly stabilized most G4s
- proportion of the G4s with ΔTm>20° C. ([20]; among the 25 G4s predicted for SARS-COV-2): 72%
- number of G4s Destabilized ([20]; of the 25 SARS-COV-2 G4s): 2
- Tm in ° C. with compound [21]: 60.21 °C
- ΔTm [21]: 3.1 °C
- Tm in ° C. with compound [22]: 82.00 °C
- ΔTm [22]: 10.41 °C

Compound: C[n+]1ccccc1-c1c2nc(c(-c3cccc[n+]3C)c3ccc([nH]3)c(-c3cccc[n+]3C)c3nc(c(-c4cccc[n+]4C)c4ccc1[nH]4)C=C3)C=C2 [TMPyP2, 5,10,15,20-tetrakis(1-methylpyridin-1-ium-2-yl)-21,23-dihydroporphyrin]
- IC50 [23]: 11.7 µM

Compound: CCC(CC)COC(=O)[C@H](C)N[P@](=O)(OC[C@H]1O[C@@](C#N)(c2ccc3c(N)ncnn23)[C@H](O)[C@@H]1O)Oc1ccccc1 [remdesivir, reference compound]
- IC50 ([24]; Severe acute respiratory syndrome coronavirus 2, Vero, 24 h): 8.78 µM

Compound: Cc1cccc(C)c1OCC(=O)N[C@@H](Cc1ccccc1)[C@@H](O)C[C@H](Cc1ccccc1)NC(=O)[C@H](C(C)C)N1CCCNC1=O [lopinavir, reference compound]
- IC50 [24, 25]: 12.1 µM

Compound: C[n+]1ccc(-c2c3nc(c(-c4cc[n+](C)cc4)c4ccc([nH]4)c(-c4cc[n+](C)cc4)c4ccc([nH]4)c(-c4cc[n+](C)cc4)c4nc2C=C4)C=C3)cc1 [TMPyP4, 5,10,15,20-tetrakis(1-methylpyridin-1-ium-4-yl)-21,23-dihydroporphyrin]
- IC50 [23]: 2.8 µM

Compound: CN(C)c1ccc(Nc2c3ccc(NC(=O)CCN4CCCC4)cc3nc3cc(NC(=O)CCN4CCCC4)ccc23)cc1 [BRACO19, N-[9-[4-(dimethylamino)anilino]-6-(3-pyrrolidin-1-ylpropanoylamino)acridin-3-yl]-3-pyrrolidin-1-ylpropanamide]
- suppression of SARS-COV-2 infection (N protein expression), in words ([24]; Vero cells): suppressed SARS-COV-2 infection at high concentrations

Compound: CCC1=C(C)c2cc3[nH]c(cc4nc(cc5c(CC)c(C)c(cc1n2)n5C)C(C)=C4CCC(=O)O)c(CCC(=O)O)c3C [NMM, 3-[18-(2-carboxyethyl)-7,12-diethyl-3,8,13,17,22-pentamethyl-23H-porphyrin-2-yl]propanoic acid]
- IC50 [23]: 2.1 µM
- suppression of SARS-COV-2 infection (N protein expression), in words ([24]; Vero cells): suppressed SARS-COV-2 infection at high concentrations

Compound: CCN(CC)CCCC(C)Nc1ccnc2cc(Cl)ccc12 (stereo not drawn) [chloroquine, reference compound]
- IC50 [24, 25]: 9.63 µM
